Experimental data as given in US20100041089A1, “IMPROVED METHOD FOR DETECTING CHEMICAL […]” (priority 2006, published 2010).

Tested on: yeast genes (expressed mRNA)
Test: DNA chip measurement of expressed mRNA of yeast genes after culture with a toxic chemical substance
Type: cell-based, Saccharomyces cerevisiae S288C
Procedure: Yeast (Saccharomyces cerevisiae S288C (a SUC2mal mel gap2 CUP1)) were cultured at 25° C. on YPD medium (yeast extract 1%, polypeptone 2%, glucose 2%). One of toxic chemical substances was added to the cell at logarithmic growth phase, and the cell was further cultured for two hours. Cell was cultured without any chemical substance in the same condition, and was used as a control. Concentrations of the chemical substances were defined to inhibit the growth of the yeast but not lead to death.
After the completion of cultivation, the culture was centrifuged to collect the cells. To the cells, sodium acetate buffer (50 mM sodium acetate, 10 mM EDTA, 1% SDS) was added, and the mixture was shaken at 65° C. for five minutes, followed by returning to room temperature, and obtaining the supernatant, which procedure was repeated two times. To the supernatant, ½ amount of a solution of phenol/chloroform (1:1) was added, and the mixture was centrifuged to give a supernatant, an equal amount of chloroform was added, and the mixture was centrifuged to give a supernatant. To the supernatant, an equal amount of isopropanol containing 0.3 M sodium acetate was added, and the mixture was allowed to stand at room temperature for 30 minutes, after which the mixture was centrifuged to give sediment of the whole RNAs. Seventy % ethanol was added to the sediment, and the mixture was again centrifuged to give sediment, which was then dried and dissolved in water. mRNA was isolated from the whole RNAs as followings. In view of the fact that a poly A chain is attached to the 3′ terminus of mRNA, a polynucleotide having a poly T structure which was immobilized on the surface of latex beads was used to trap the mRNA, and then the mRNA was washed and eluted with spine column (Oligotex-dT30<Super>mRNA Purification Kit, Takara). Reverse transcription of the mRNA was conducted with a reverse transcriptase (Super Script II Reverse Transcriptase; catalogue No. 18064-014, GibcoBRL) using fluorescence-labeled nucleotides to give cDNAs that were introduced with Cy3-dUTP or Cy5-dUTP during the reverse transcription.
The labeled cDNAs were dissolved in TE buffer (10 mM Tris-HCl/1 mM EDTA, pH 8.0), and the solution was dropped on the DNA chip containing the whole genes of yeast (DNA Chip Research Inc. Japan) so that the cDNAs were hybridized on the DNA chip at 65° C. for over 12 hours. The fluoresces intensity of the DNA chip was read with a scanner, and the ratio relative to the fluorescence intensity resulting from the absence of chemical substance was estimated as the following, which is shown in Tables 1 to 9.
In the Tables, “Intensity” indicated in the rightmost column is a value of the level of expressed mRNA of each gene in control cells as divided by the average level of the expressions of the whole genes. A gene of which mRNA level is lower in control, and is higher in cases of addition of chemical substance, is especially useful in the detection of toxic substances.
Here, when a ratio of an amount of mRNA expressed in the presence of the chemical substance to an amount of mRNA expressed in the absence of the chemical substance is two or more, then it is considered significant.

Measured: The level of expressed mRNA in the presence of chemical substance/The level of expressed mRNA in the absence of chemical substance

O=[N+]([O-])c1cc[n+]([O-])c2ccccc12 [(5), 4-Nitroquinoline-N-oxide]
2.9: yeast gene YHR053C (detoxification protein gene)
1.7: yeast gene YJL082W, cultured two hours with substance
1.5: yeast gene YER004W, cultured two hours with substance | yeast gene YER035W, cultured two hours with substance | yeast gene YHR138C, cultured two hours with substance | yeast gene YJL057C, cultured two hours with substance
2.4: yeast gene YHR136C
0.9: yeast gene YEL001C, cultured two hours with substance | yeast gene YER175C, cultured two hours with substance | yeast gene YFL032W, cultured two hours with substance | yeast gene YGL037C, cultured two hours with substance | yeast gene YGL121C, cultured two hours with substance | yeast gene YGR110W, cultured two hours with substance | yeast gene YGR221C, cultured two hours with substance
1.2: yeast gene YBL107C, cultured two hours with substance | yeast gene YDR330W, cultured two hours with substance | yeast gene YDR391C, cultured two hours with substance | yeast gene YGR101W, cultured two hours with substance | yeast gene YGR154C, cultured two hours with substance | yeast gene YHR199C, cultured two hours with substance
1.1: yeast gene YFL024C, cultured two hours with substance | yeast gene YJL161W, cultured two hours with substance | yeast gene YKL071W, cultured two hours with substance
0.5: yeast gene YIL041W, cultured two hours with substance
0.8: yeast gene YAL053W, cultured two hours with substance | yeast gene YER079W, cultured two hours with substance | yeast gene YER158C, cultured two hours with substance | yeast gene YER163C, cultured two hours with substance | yeast gene YJL066C, cultured two hours with substance
2.7: yeast gene YHR055C (detoxification protein gene)
0.7: yeast gene YGL199C, cultured two hours with substance
1.8: yeast gene YDR003W, cultured two hours with substance | yeast gene YDR539W, cultured two hours with substance | yeast gene YER044C, cultured two hours with substance | yeast gene YHR209W, cultured two hours with substance
1.4: yeast gene YDL072C, cultured two hours with substance | yeast gene YDR545W, cultured two hours with substance | yeast gene YFL006W, cultured two hours with substance | yeast gene YGR130C, cultured two hours with substance | yeast gene YIL087C, cultured two hours with substance | yeast gene YJR008W, cultured two hours with substance
2.0: yeast gene YDR357C, cultured two hours with substance | yeast gene YDR531W, cultured two hours with substance | yeast gene YGL053W, cultured two hours with substance
1.3: yeast gene YBL048W, cultured two hours with substance | yeast gene YFL010C, cultured two hours with substance | yeast gene YGL047W, cultured two hours with substance | yeast gene YIL023C, cultured two hours with substance | yeast gene YJL151C, cultured two hours with substance
1.0: yeast gene YDL204W, cultured two hours with substance | yeast gene YDL222C, cultured two hours with substance | yeast gene YDR511W, cultured two hours with substance | yeast gene YJL171C, cultured two hours with substance | yeast gene YJR054W, cultured two hours with substance
1.6: yeast gene YDR411C, cultured two hours with substance | yeast gene YER106W, cultured two hours with substance | yeast gene YJL152W, cultured two hours with substance
